Data: patent publication US20080026996A1, “Selective Vpac2 Receptor Reptide Agonists” (ELI LILLY AND COMPANY, priority 2004, published 2008)
Where no end group is shown, it is not given here. [ ]: non-standard residue; d: D form. The star is where a group is joined. hArg = N=C(N)NCCCC[C@H](N)C(=O)O; Nle = CCCC[C@H](N)C(=O)O; Hexanoyl = CCCCCC(=O)*; Aib = CC(C)(N)C(=O)O

What was measured:
human PAC1 [1] = molecular target: T1, human PAC1 (Homo sapiens, UniProt P41586); assay: DiscoveRx cAMP in vitro potency, CHO-PO cells transiently transfected with human PAC1 receptor; assay type: cell-based; parameters: expressed in transfected cells; host or cells: CHO-PO, transient (Lipofectamine); conditions: cAMP generation; mean of two independent runs; read-out: Human PAC1 Receptor: DiscoveRx EC50
T1 sequence (P41586 21-468): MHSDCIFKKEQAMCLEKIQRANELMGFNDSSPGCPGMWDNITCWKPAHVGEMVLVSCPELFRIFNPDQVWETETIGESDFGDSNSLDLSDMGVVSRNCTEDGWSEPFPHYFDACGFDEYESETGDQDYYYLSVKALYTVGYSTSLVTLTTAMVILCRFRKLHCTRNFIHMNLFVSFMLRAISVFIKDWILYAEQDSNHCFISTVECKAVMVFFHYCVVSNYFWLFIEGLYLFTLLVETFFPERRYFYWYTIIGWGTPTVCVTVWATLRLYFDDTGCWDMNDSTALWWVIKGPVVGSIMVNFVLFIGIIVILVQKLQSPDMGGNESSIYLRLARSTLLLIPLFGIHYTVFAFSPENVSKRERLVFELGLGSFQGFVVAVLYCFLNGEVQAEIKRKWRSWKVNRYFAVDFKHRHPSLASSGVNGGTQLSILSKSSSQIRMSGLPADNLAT
Protocol: Also, the cells are washed twice. The cells are incubated in assay buffer plus IBMX for 15 minutes at room temperature. […] The stimuli are present for 30 minutes. Then, the assay buffer is gently removed. […] At day 3, the assay described above for the VPAC2 receptor cell line is performed.

human VPAC2 [2] = molecular target: T2, human VPAC2 (Homo sapiens, UniProt P41587); assay: Alpha screen cAMP in vitro potency, human VPAC2 receptor; assay type: cell-based; conditions: cAMP generation; single result from two analyses performed in a single run; read-out: Human VPAC2 Receptor: Alpha Screen EC50
T2 construct: expressed in transfected cells
T2 sequence (P41587 24-438): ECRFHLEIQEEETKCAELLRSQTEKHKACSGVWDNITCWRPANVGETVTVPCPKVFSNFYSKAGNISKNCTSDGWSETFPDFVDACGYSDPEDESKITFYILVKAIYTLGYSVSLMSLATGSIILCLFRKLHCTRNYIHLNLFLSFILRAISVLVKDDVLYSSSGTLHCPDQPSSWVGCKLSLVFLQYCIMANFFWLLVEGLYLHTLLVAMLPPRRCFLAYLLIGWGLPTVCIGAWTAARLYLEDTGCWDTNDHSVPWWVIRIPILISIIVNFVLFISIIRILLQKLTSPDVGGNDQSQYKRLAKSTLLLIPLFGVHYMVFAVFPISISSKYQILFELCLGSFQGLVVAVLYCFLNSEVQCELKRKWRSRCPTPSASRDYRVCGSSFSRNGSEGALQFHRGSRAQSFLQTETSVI
Procedure, shortened: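 Under reduced light, acceptor beads accompany the stimuli during a 60-minute incubation of cells in stimulation buffer (50,000 per well point). Donor beads go in with lysis buffer for a further 60–120 minutes, and the resulting AlphaScreen signal indicates cAMP levels.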

human VPAC2 [3] = molecular target: T2, human VPAC2; assay: Filter binding assay, membranes of stable VPAC2 cell line, 125I-labeled VIP tracer (Table 2); conditions: read-out: Human VPAC2 Receptor Binding
Procedure, shortened: (§1)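 Membranes 2.5 μg/well; tracer ~40000 cpm; buffer 25 mM HEPES pH 7.4, 0.5% protease-free BSA; 1 h incubation, shaking. Glass-fibre filtration (0.5% polyethyleneamine presoak, 0.2% BSA block), 3× HEPES wash, dry 1 h at 60° C, scintillation count.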

[4] = Rat serum stability studies (remaining active peptide by DiscoveRx cAMP on CHO-VPAC2 cells); assay type: in vitro ADME
Procedure, shortened: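 EC50 from a DiscoveRx cAMP read-out on CHO-VPAC2 cells indexes how much peptide stays active after 18 h in rat serum at 37° C without aprotinin, against an aprotinin-protected 4° C aliquot.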

human VPAC1 = molecular target: T3, human VPAC1 (Homo sapiens, UniProt P32241); assay: Filter binding assay, membranes of cells transiently transfected with human VPAC1, 125I-labeled VIP tracer (Table 2); parameters: expressed in transfected cells; conditions: read-out: Human VPAC1 Receptor Binding
T3 sequence (P32241 31-457): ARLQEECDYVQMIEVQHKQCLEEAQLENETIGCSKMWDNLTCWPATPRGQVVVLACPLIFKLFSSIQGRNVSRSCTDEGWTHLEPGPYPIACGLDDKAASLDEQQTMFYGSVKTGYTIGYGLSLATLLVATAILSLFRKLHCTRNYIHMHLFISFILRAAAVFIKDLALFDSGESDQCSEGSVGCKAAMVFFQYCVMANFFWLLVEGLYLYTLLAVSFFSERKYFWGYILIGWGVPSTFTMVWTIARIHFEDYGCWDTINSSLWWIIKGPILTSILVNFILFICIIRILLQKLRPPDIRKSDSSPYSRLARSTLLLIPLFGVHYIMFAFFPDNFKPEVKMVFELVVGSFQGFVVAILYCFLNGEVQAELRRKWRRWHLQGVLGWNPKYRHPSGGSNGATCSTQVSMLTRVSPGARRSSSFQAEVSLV
Procedure, shortened: as §1

human PAC1 [5] = molecular target: T1, human PAC1; assay: Filter binding assay, membranes of cells transiently transfected with human PAC1, 125I-labeled PACAP-27 tracer (Table 2); parameters: expressed in transfected cells; conditions: read-out: Human PAC1 Receptor Binding
Procedure, shortened: as §1

rat VPAC2 receptor = molecular target: T4, rat VPAC2 receptor (Rattus norvegicus, UniProt P35000); assay: DiscoveRx in vitro potency, CHO-PO cells transiently transfected with rat VPAC 2 receptor DNA; assay type: cell-based; parameters: expressed in transfected cells; host or cells: CHO-PO, transient
T4 sequence (P35000 23-437): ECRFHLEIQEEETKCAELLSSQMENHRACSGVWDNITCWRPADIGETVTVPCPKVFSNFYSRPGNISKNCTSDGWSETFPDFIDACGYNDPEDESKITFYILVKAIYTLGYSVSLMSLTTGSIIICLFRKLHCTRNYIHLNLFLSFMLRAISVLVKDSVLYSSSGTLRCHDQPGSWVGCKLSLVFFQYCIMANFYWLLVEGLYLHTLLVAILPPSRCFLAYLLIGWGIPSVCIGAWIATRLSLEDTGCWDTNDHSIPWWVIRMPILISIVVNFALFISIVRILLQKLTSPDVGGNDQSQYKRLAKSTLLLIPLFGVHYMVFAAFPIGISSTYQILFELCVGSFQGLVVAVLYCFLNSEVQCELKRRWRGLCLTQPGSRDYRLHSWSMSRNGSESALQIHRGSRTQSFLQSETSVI
Protocol: Also, the cells are washed twice. […] The stimuli are present for 30 minutes. Then, the assay buffer is gently removed.

Molecule | EC50 (human PAC1 [1]) [nM] | EC50 (human VPAC2 [2]) [nM] | IC50 (human VPAC2 [3]) [nM] | Rat Serum Stability (Estimated purity in % after 72 hours) [4] [%] | Rat Serum Stability (estimated purity in % after 18 hours) [4] [%] | IC50 (human VPAC1) [nM] | IC50 (human PAC1 [5]) [nM] | EC50 (rat VPAC2 receptor) [nM]
HSDAWFTDNYTRLRKQVAAKKYLQSIKNKRYGGPSSGAPPPS [Agonist P69] | 104 |  |  |  |  |  |  | 
CCCCCC(=O)N[C@@H](Cc1c[nH]cn1)C(=O)N[C@@H](CO)C(=O)N[C@@H](CC(=O)O)C(=O)N[C@@H](C)C(=O)N[C@H](C(=O)N[C@@H](Cc1ccccc1)C(=O)N[C@H](C(=O)N[C@@H](CC(=O)O)C(=O)N[C@@H](CC(N)=O)C(=O)N[C@@H](Cc1ccc(O)cc1)C(=O)N[C@H](C(=O)N[C@@H](CCCN)C(=O)N[C@@H](CC(C)C)C(=O)N[C@@H](CCCNC(=N)N)C(=O)NC(C)(C)C(=O)N[C@@H](CCC(N)=O)C(=O)N[C@H](C(=O)N[C@@H](C)C(=O)N[C@@H](C)C(=O)NC(C)(C)C(=O)N[C@@H](CCCCN)C(=O)N[C@@H](Cc1ccc(O)cc1)C(=O)N[C@@H](CC(C)C)C(=O)N[C@@H](CCC(N)=O)C(=O)N[C@@H](CO)C(=O)N[C@H](C(=O)N[C@@H](CCCN)C(=O)N[C@@H](CC(N)=O)C(=O)N[C@@H](CCCN)C(=O)NCC(=O)NCC(=O)N1CCC[C@H]1C(=O)N[C@@H](CO)C(=O)N[C@@H](CO)C(=O)NCC(=O)N[C@@H](C)C(=O)N1CCC[C@H]1C(=O)N1CCC[C@H]1C(=O)N1CCC[C@H]1C(=O)N[C@@H](CO)C(=O)O)[C@@H](C)CC)C(C)C)[C@@H](C)O)[C@@H](C)O)C(C)C [Agonist P326] |  | 0.21 | 0.33 | 49.6 | 90.10 | > 3000 | > 25000 | 0.09
HSDYVFTDNYTRLRKQVAAKKYLQSIKNKRYGGPSSGAPPPS [Agonist P51] | > 1000 |  |  |  |  |  |  | 
HSDAVFTDNYTRLRKQVAAKKYLQSIKNKRYGGPSSGAPPPS [Agonist P6] | > 40 | 3.19 | 2.58 |  |  | 195 | 334 | 
Hexanoyl-HSDAVFTDNYTRL[hArg]KQVAAKKYLQSIKNKRYGGPSSGAPPPS [Agonist P305] |  | 0.17 | 0.17 |  | 0.23 | 268 | 171 | 0.04
HSDFVFTDNYTRLRKQVAAKKYLQSIKNKRYGGPSSGAPPPS [Agonist P52] | > 1000 |  |  |  |  |  |  | 
HSDTVFTDNYTRLRKQVAAKKYLQSIKNKRYGGPSSGAPPPS [Agonist P54] | > 1000 |  |  |  |  |  |  | 
H-HSDAVFTDNYTRLRKQVAAKKYLQSIKNKRYC [Agonist P37] | 35.6 |  |  |  |  |  |  | 
Hexanoyl-HSDAVFTDNYTRLR[Aib]QVAAKKYLQSIKNKRYGGPSSGAPPPS [Agonist P168] |  | 0.27 | 0.21 |  | 10.47 | 234 | 538 | 0.05
Hexanoyl-HSDAVFTDNYTRLR[Aib]Q[Nle]AA[Aib]KYLQSIKNKRYGGPSSGAPPPS [Agonist P325] |  | 0.24 | 0.4 |  | 13.13 | > 3000 | > 25000 | 0.04
HGDAVFTDNYTRLRKQVAAKKYLQSIKNKRYGGPSSGAPPPS [Agonist P43] | 104 |  |  |  |  |  |  | 
HSDAVFTDNYTRLRKQVAAKKYLQSIKNRRYGGPSSGAPPPS [Agonist P25] | 137 |  | 1.65 |  |  | 233 |  | 
H-HSDAVFTDNYTRLRKQVAAKKYLQSIQNKRYGGPSSGAPPPS [Agonist P74] | 145 |  |  |  |  |  |  | 
HSDAVFTDNYTRLRKQVAAKKYLQSIKN[hArg]RYGGPSSGAPPPS [Agonist P24] | > 100 |  | 1.97 |  |  | 198 |  | 
HSDAVFTDNYTRLRKQVAASKYLQSIKNKRYGGPSSGAPPPS [Agonist P21] | > 100 | 11.6 | 4.94 |  |  | 385 |  | 
HSDAFFTDNYTRLRKQVAAKKYLQSIKNKRYGGPSSGAPPPS [Agonist P58] | 35.6 |  |  |  |  |  |  | 
Hexanoyl-HSDAVFTDNYTRLRQQVAAKKYLQSIKNKRYGGPSSGAPPPS [Agonist P177] |  | 0.21 | 0.7 |  | 0.49 | 128 | 276 | 0.1
HLDAVFTDNYTRLRKQVAAKKYLQSIKNKRYGGPSSGAPPPS [Agonist P46] | > 1000 |  |  |  |  |  |  | 
Hexanoyl-HSDAVFTDNYTRLR[Aib]QLAA[Aib]KYLQSIKNKRYGGPSSGAPPPS [Agonist P291] |  | 0.36 | 0.45 |  | 28.09 | > 3000 | > 25000 | 0.06
CCCCCC(=O)N[C@@H](Cc1c[nH]cn1)C(=O)N[C@@H](CO)C(=O)N[C@@H](CC(=O)O)C(=O)N[C@@H](C)C(=O)N[C@H](C(=O)N[C@@H](Cc1ccccc1)C(=O)N[C@H](C(=O)N[C@@H](CC(=O)O)C(=O)N[C@@H](CC(N)=O)C(=O)N[C@@H](Cc1ccc(O)cc1)C(=O)N[C@H](C(=O)N[C@@H](CCCNC(=N)N)C(=O)N[C@@H](CC(C)C)C(=O)N[C@@H](CCCNC(=N)N)C(=O)N[C@@H](CCCCN)C(=O)N[C@@H](CCC(N)=O)C(=O)N[C@H](C(=O)N[C@@H](C)C(=O)N[C@@H](C)C(=O)NC(C)(C)C(=O)N[C@@H](CCCCN)C(=O)N[C@@H](Cc1ccc(O)cc1)C(=O)N[C@@H](CC(C)C)C(=O)N[C@@H](CCC(N)=O)C(=O)N[C@@H](CO)C(=O)N[C@H](C(=O)N[C@@H](CCCCN)C(=O)N[C@@H](CC(N)=O)C(=O)N[C@@H](CCCCN)C(=O)N[C@@H](CCCNC(=N)N)C(=O)N[C@@H](Cc1ccc(O)cc1)C(=O)NCC(=O)NCC(=O)N1CCC[C@H]1C(=O)N[C@@H](CO)C(=O)N[C@@H](CO)C(=O)NCC(=O)N[C@@H](C)C(=O)N1CCC[C@H]1C(=O)N1CCC[C@H]1C(=O)N1CCC[C@H]1C(=O)N[C@@H](CO)C(=O)O)[C@@H](C)CC)C(C)C)[C@@H](C)O)[C@@H](C)O)C(C)C [Agonist P169] |  | 0.14 | 0.26 |  | 0.40 | 240 | 482 | 0.07
HSDAVFTDNWTRLRKQVAAKKYLQSIKNKRYGGPSSGAPPPS [Agonist P27] | > 100 |  |  |  |  |  |  | 
